Values quoted from earlier work in patent US20220125818A1, “COMPOSITIONS AND METHODS FOR TREATMENT OF A CORONAVIRUS DISEASE (COVID-19) INFECTION” (priority 2020, published 2022).

Molecular target: T1, COX-1 (Homo sapiens, UniProt P23219)
T1 construct: endogenous in cells; host or cells: platelets (in vivo)
Conditions: average platelet lifespan

T1 sequence (P23219 24-599): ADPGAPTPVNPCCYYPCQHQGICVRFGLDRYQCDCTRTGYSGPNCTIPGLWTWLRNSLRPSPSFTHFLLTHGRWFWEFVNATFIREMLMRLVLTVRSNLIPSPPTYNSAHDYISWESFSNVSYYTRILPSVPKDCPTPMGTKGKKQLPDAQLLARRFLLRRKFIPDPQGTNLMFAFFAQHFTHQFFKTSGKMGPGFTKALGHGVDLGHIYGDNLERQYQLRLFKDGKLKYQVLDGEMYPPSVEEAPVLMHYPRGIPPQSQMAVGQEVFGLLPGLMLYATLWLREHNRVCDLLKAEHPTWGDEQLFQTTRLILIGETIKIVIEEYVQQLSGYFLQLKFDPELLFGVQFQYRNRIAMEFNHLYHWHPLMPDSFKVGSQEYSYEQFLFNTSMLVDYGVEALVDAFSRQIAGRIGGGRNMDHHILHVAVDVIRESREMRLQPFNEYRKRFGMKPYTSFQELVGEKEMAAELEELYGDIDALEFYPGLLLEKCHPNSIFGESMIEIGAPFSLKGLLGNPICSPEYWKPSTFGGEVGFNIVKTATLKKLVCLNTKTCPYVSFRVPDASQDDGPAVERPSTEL

## CC(=O)Oc1ccccc1C(=O)O [Aspirin®, Acetylsalicylic acid]
  duration of inhibition of platelet aggregation: 7 to 10 days
